Among the data in patent publication US6841566B2, “Viral polymerase inhibitors” (Boehringer Ingelheim, Ltd., priority 2001, dated 2005) are EC50 values, retold here.

Each structure is given as a SMILES string.

The subject of the assay is Huh7 cells that stably maintain a subgenomic HCV replicon (S22.3 cell-line). Description: Cell based HCV RNA replication assay (S22.3 replicon cells, real-time RT-PCR). The following applies: Hepatitis C virus, Huh-7, 72 hours. The procedure:
Huh7 cells that stably maintain a subgenomic HCV replicon were established as previously described (Lohman et al., 1999. Science 285: 110-113) and designated as the S22.3 cell-line. S22.3 cells were maintained in Dulbecco's Modified […] Medium (DMEM) supplemented with 10% FBS and 0.5 mg/mL neomycin (Standard Medium). During the assay, DMEM medium supplemented with 10% FBS, containing 0.5% DMSO and lacking neomycin was used (Assay Medium). 16 hours prior to compound addition, S22.3 cells are trypsinized and diluted to 100 000 cells/ml in Standard Medium. 100μL (10 000 cells) are distributed into each well of a 96-well plate. The plate was then incubated at 37° C. with 5% CO2 until the next day.
10 μL of test compound (in 100% DMSO) was added to 2 ml of Assay Medium for a final DMSO concentration of 0.5% and the solution was sonicated for 15 min and filtered through a […] Millipore Filter Unit. 900 μl was transferred into row A of a Polypropylene Deep-Well Titer Plate. Rows B to H, contain 400 μL aliquots of Assay Medium (containing 0.5% DMSO), and were used to prepare serial dilutions (1/2) by transferring 400 μl from row to row (no compound was included in row H).
Cell culture medium was aspirated from the 96-well plate containing the S22.3 cells. 175 μL of assay medium with the appropriate dilution of test compound was transferred from each well of the compound plate to the corresponding well of the cell culture plate (row H was used as the “No inhibition control”). The cell culture plate was incubated at 37° C. with 5% CO2 for 72 hours.
Following the 72 hour incubation period, the total cellular RNA was extracted from the S22.3 cells of the 96-well plate using the RNeasy 96 kit (Qiagen®, RNeasy Handbook. 1999.). Briefly, assay medium was completely removed from cells and 100 μL of RLT buffer (Qiagen®) containing 143 mM β-mercaptoethanol was added to each well of the 96-well cell-culture plate. The microplate was gently shaken for 20 sec. 100 μL of 70% ethanol was then added to each microplate well, and mixed by pipetting. The lysate was removed and applied to the wells of a RNeasy 96 (Qiagen®) plate that was placed on top of a Qiagen® Square-Well Block. The RNeasy 96 plate was sealed with tape and the Square-Well Block with the RNeasy 96 plate was loaded into the holder and placed in a rotor bucket of a 4K15C centrifuge. The sample was centrifuged at 6000 rpm (˜5600×g) for 4 min at room temperature. The tape was removed from the plate and 0.8 ml of Buffer RW1 (Qiagen® RNeasy 96 kit) was added to each well of the RNeasy 96 plate. The RNeasy 96 plate was sealed with a new piece of tape and centrifuged at 6000 rpm for 4 min at room temperature. The RNeasy 96 plate was placed on top of another clean Square-Well Block, the tape removed and 0.8 ml of Buffer RPE (Qiagen® RNeasy 96 kit) was added to each well of the RNeasy 96 plate. The RNeasy 96 plate was sealed with a new piece of tape and centrifuged at 6000 rpm for 4 min at room temperature. The tape was removed and another 0.8 ml of Buffer RPE (Qiagen® RNeasy 96 kit) was added to each well of the RNeasy 96 plate. The RNeasy 96 plate was sealed with a new piece of tape and centrifuged at 6000 rpm for 10 min at room temperature. Tape was removed, the RNeasy 96 plate was placed on top of a rack containing 1.2-mL collection microtubes. The RNA was eluted by adding 50 μL of RNase-free water to each well, sealing plate with a new piece of tape and incubated for 1 min at room temperature. The plate was then centrifuged at 6000 rpm for 4 min at room temperature. The elution step was repeated with a second volume of 50 μl RNase-free water. The microtubes with total cellular RNA are stored at −70° C.
RNA was quantified on the STORM® system (Molecular Dynamics®) using the RiboGreen® RNA Quantification Kit (Molecular Probes®). Briefly, the RiboGreen reagent was diluted 200-fold in TE (10 mM Tris-HCl pH=7.5, 1 mM EDTA). Generally, 50 μL of reagent was diluted in 10 mL TE. […]
A word on the EC50: it is the concentration that produces a half-maximal response. A high value points to weaker potency. `Cc1c(C(=O)O)sc2ccc(NC(=O)C3(NC(=O)c4ccc5c(c4)nc(-c4ccoc4)n5C4CCCCC4)CCCC3)cc12` [compound 1099] registered an EC50 of no more than 5 µM.
Compound `O=C(O)/C=C/c1ccc(NC(=O)C2(NC(=O)c3ccc4c(c3)nc(-c3ccccc3)n4C3CCCCC3)CCCC2)cc1` [compound 2006] had a concentration for a half-maximal effect (EC50) of no more than 5 µM.
To `O=C(O)/C=C/c1ccc(NC(=O)C2(NC(=O)c3ccc4c(c3)nc(-c3ccsc3)n4C3CCCCC3)CCCC2)cc1` [compound 2001] belongs no more than 5 µM; to `Cc1cc(=O)oc2cc(NC(=O)[C@@H](C)NC(=O)c3ccc4c(c3)nc(-c3ccoc3)n4C3CCCCC3)ccc12` [compound 1026], no more than 5 µM.
Then `C/C(=C\c1ccc(NC(=O)C2(NC(=O)c3ccc4c(c3)nc(-c3ccoc3)n4C3CCCCC3)CCCC2)cc1)C(=O)O` [compound 1083], with no more than 5 µM.
To `C[C@@H](NC(=O)c1ccc2c(c1)nc(-c1ccoc1)n2C1CCCCC1)C(=O)Nc1ccc(/C=C/C(=O)O)cc1` [compound 1057] belongs 5 to 50 µM; to `O=C(O)/C=C/c1ccc(NC(=O)C2(NC(=O)c3ccc4c(c3)nc(-c3ccccn3)n4C3CCCCC3)CCCC2)cc1` [compound 2005], no more than 5 µM.
The compound `C[C@@H]1CCCC[C@H]1n1c(-c2ccccn2)nc2cc(C(=O)NC3(C(=O)Nc4ccc(/C=C/C(=O)O)cc4)CCCC3)ccc21` (racemic) [compound 2044] came in with an EC50 of no more than 5 µM.
Then `O=C(O)/C=C/c1ccc(NC(=O)CNC(=O)c2ccc3c(c2)nc(-c2ccoc2)n3C2CCCCC2)cc1` [compound 1079], with 5 to 50 µM.
